This is an account of results in publication PMC10360056, “Chemical Evolution of Amphiphilic Xenopeptides for Potentiated Cas9 Ribonucleoprotein Delivery” (Journal of the American Chemical Society, 2023).

Data set [1] in a line: Dilution stability of Cas9 RNP nanocarriers (DLS). Format: physicochemical. The conditions noted are these: prepared at 375 nM RNP, diluted with HBG, 0.1 nM RNP. The protocol:
LogD7.4 determination of xenopeptides
Octanol-water partition coefficient D at pH 7.4 (logD7.4) was determined as previously reported with slight modification.5
Scheme S3 illustrates the logD7.4 determination procedures of all xenopeptides in this study. Briefly, 10 μL of 10 mg/mL xenopeptides in water were diluted with 90 μL HEPES buffer (20 mM, pH 7.4) in 1.5 mL reaction tubes. 100 μL n-octanol were then added. The tubes were shaken at 1400 rpm for 24 h. Afterwards, the tubes were centrifuged followed by storage at 4 °C for 1 h to separate n-octanol and water phases. 70 μL of each phase were injected for HPLC analysis. The extinction at 280 nm was monitored and the peak area (A) of the xenopeptides was calculated. LogD7.4 was calculated as log(Aoctanol / Awater).
All experiments were performed in triplicate.
Preparation of Cas9 RNP and Cas9 RNP/ssDNA nanocarriers […]
The hydrodynamic size, PDI and zeta potential of Cas9 RNP nanocarriers were measured by DLS using a Zetasizer Nano ZS (Malvern Instruments, UK). […] The hydrodynamic size of Cas9 RNP nanocarriers containing 1.25 μg Cas9 protein and 0.25 μg sgRNA (Cas9/sgRNA, 1:1 molar ratio) in 100 μL HBG was measured.
Afterwards, 700 μL HEPES buffer (20 mM, pH 7.4) were added to each sample and the soluti on was mixed for the zeta potential measurement. […] The size and zeta potential of diluted samples were measured as described above. […]

The subject of data set [2] is HeLa WT cells. In words: Cellular uptake of Cas9 RNP nanocarriers (flow cytometry). It counts as cell-based. As to conditions: 75 nM RNP, 20 % ATTO488-sgRNA, 4 h, flow cytometry MFI. The protocol: (§1) sgRNA amount in naked Cas9/sgRNA ribonucleoproteins (Cas9 RNPs) or Cas9 RNP nanocarriers were determined using a Quant-iTTM RiboGreen® RNA assay kit (Invitrogen, CA, USA). 50 μL of naked Cas9 RNPs or Cas9 RNP nanocarriers con-taining 250 ng Cas9 protein and 50 ng sgRNA were mixed with 50 μL of TE buffer and were added to the 96-well plate. The plate was incubated for 10 min. Afterwards, 100 μL of Ribogreen solution (diluted 1:100 in TE buffer) was added to each well.
(§2) The plate was incubated for another 5 min. Ribogreen fluorescence intensity was detected using a microplate reader (Spectra-fluor Plus, Tecan, Männedorf, Switzerland) with excitation and emission wavelength of 485 and 528 nm, respectively. […]
(§3) Cells were harvested and resuspended in 600 μL of FACS buffer (PBS buffer containing 10 % FBS). […] The DAPI signal and BFP fluorescence were detected with 405 nm excitation and 450 nm emission. The eGFP and ATTO488 fluorescence was assayed with 488 nm excitation and 530 nm emission. The ATTO647N fluorescence was assayed with 640 nm excitation and 670 nm emission. Ten thousand of isolated live cells were counted and evaluated. The data were analyzed using FlowJo 7.6.5 by FlowJo, LLC (Becton, Dickinson and Company, USA).
(§4) Cell viability was determined using an MTT assay. […]
(§5) Cellular uptake of Cas9 RNP nanocarriers was evaluated by flow cytometry and confocal laser scanning microscopy (CLSM). […]
In general terms: Flow cytometry measures light scatter and fluorescence of single cells or particles in a stream.

Data set [3] deals with HeLa WT cells. Description: Endocytosis pathway study with inhibitors. It counts as cell-based. The conditions noted are these: 1 mM amiloride 2 h, 75 nM RNP, 4 h, flow cytometry. The protocol: as §1, §2, §3, §4, §5

For the compound `CCCCC/C=C\C/C=C\CCCCCCCC(=O)NCCCC[C@H](NC(=O)CCCCCCC/C=C\C/C=C\CCCCC)C(=O)NCCCC[C@H](NC(=O)c1cc2ccccc2cc1C(=O)NCCNCCNCCNCCNC(=O)[C@H](Cc1ccc(O)cc1)NC(=O)[C@H](Cc1ccc(O)cc1)NC(=O)[C@H](Cc1ccc(O)cc1)NC(=O)[C@@H](N)CCCCN=[N+]=[N-])C(=O)NCCNCCNCCNCCNC(=O)c1cc2ccccc2cc1C(=O)N[C@@H](Cc1ccc(O)cc1)C(=O)N[C@@H](Cc1ccc(O)cc1)C(=O)N[C@@H](Cc1ccc(O)cc1)C(=O)O` [Ntp1-LinA], the “nanocarrier size detectability upon dilution” value in data set [1] is reported as “still detectable”. The “enhanced sgRNA uptake compared to the Stp-based analogue” value with HeLa WT cells [2] was 7.3 fold. Besides, the “Cas9 RNP uptake after pretreatment with amiloride (macropinocytosis)” value with HeLa WT cells [3] was “blocked”.
